Like-named read-outs stand apart in the source and are kept apart here.
How the values were obtained:
[1] = system: wild-type cotton (Coker 130); assay: Year 2 efficacy field trial, wild-type plots; assay type: in vivo, Gossypium hirsutum; details: 1× rate (0.5 lb/A), half plot each herbicide, at one post-emergence timing (Early, Mid, Late)
Experimental: In year 2, efficacy testing was conducted with twelve events compared to non-transgenic, wild-type Coker 130. For this testing, paired plots were either sprayed or not sprayed. The plots were maintained weed-and insect-free using conventional control programs for the duration of the trial. For the plots that were sprayed, the following treatment applications were conducted (1) 0.5 lb/A dicamba applied PRE, Early POST, Mid POST and Late POST; (2) 1 lb/A dicamba applied PRE, Early POST, Mid POST and Late POST; (3) 2 lb/A dicamba applied PRE, Early POST, Mid POST and Late POST; (4) 0.5 lb/A glufosinate applied Early POST, Mid POST and Late POST: (5) 1 lb/A glufosinate applied Early POST, Mid POST and Late POST: 6) 2 lb/A glufosinate applied Early POST, Mid POST and Late POST; and 7) Control (unsprayed). Preemergence (PRE) is defined as immediately after cotton planting (within 24 hours); Early POST as 2-node cotton; Mid POST as 8-node cotton; and Late POST as 14 node cotton. […]
At each rating time, the following observations were recorded: 1) percent necrosis or burn on the most affected leaves; 2) percent necrosis or burn on a whole-plant basis; 3) epinasty; and 4) any other relevant injury that was observed. […] Plots were harvested and recorded as lbs/plot of seedcotton and expressed as lb/acre of seedcotton.

[2] = system: plants comprising the MON 88701 event
Experimental: In year 2, efficacy testing was conducted with twelve events compared to non-transgenic, wild-type Coker 130. For this testing, paired plots were either sprayed or not sprayed. The plots were maintained weed-and insect-free using conventional control programs for the duration of the trial. For the plots that were sprayed, the following treatment applications were conducted (1) 0.5 lb/A dicamba applied PRE, Early POST, Mid POST and Late POST; (2) 1 lb/A dicamba applied PRE, Early POST, Mid POST and Late POST; (3) 2 lb/A dicamba applied PRE, Early POST, Mid POST and Late POST; (4) 0.5 lb/A glufosinate applied Early POST, Mid POST and Late POST: (5) 1 lb/A glufosinate applied Early POST, Mid POST and Late POST: 6) 2 lb/A glufosinate applied Early POST, Mid POST and Late POST; and 7) Control (unsprayed). Preemergence (PRE) is defined as immediately after cotton planting (within 24 hours); Early POST as 2-node cotton; Mid POST as 8-node cotton; and Late POST as 14 node cotton. For these efficacy field trials, there were three plots composed entirely of wild-type cotton (Coker 130). At each post-emergence timing (Early, Mid, Late), one-half of a plot was sprayed with the 1× rate (0.5 lb/A) of dicamba and one-half of the same plot was sprayed with the 1× rate (0.5 lb/A) of glufosinate. Each of the three plots received dicamba and glufosinate spray at one of the post-emergence timing spray applications (Early, Mid, Late).
XR TeeJet® extended range flat spray tips with an 80-degree spray angle were used (TeeJet Technologies, Wheaton, IL). There were 2 nozzles per row (nozzles spaced at 15″ for 30″ rows, 19″ for 38″ rows and 20″ for 40″ rows). Nozzle size depended on sprayer speed and nozzle spacing; however, nozzle size was selected to result in a spray pressure of 25 to 35 PSI. Boom height was adjusted to allow for 50% spray overlap (which occurs at roughly 30″ above the top of the crop).
At each rating time, the following observations were recorded: 1) percent necrosis or burn on the most affected leaves; 2) percent necrosis or burn on a whole-plant basis; 3) epinasty; and 4) any other relevant injury that was observed. Ratings were taken four days after each application and immediately prior to subsequent applications. […] Plots were harvested and recorded as lbs/plot of seedcotton and expressed as lb/acre of seedcotton.

[3] = system: transgenic cotton events (eight events)
Experimental: (§1) In year 1, efficacy testing was conducted with eight events compared to non-transgenic, wild-type Coker 130. For this testing, paired plots were sprayed with dicamba (Clarity®, BASF, Research Triangle Park, NC) and glufosinate (Ignite®, Bayer CropScience, Research Triangle Park, NC) or left unsprayed. The plots were maintained weed-and insect-free using conventional control programs for the duration of the trial. […] For plots that were sprayed, the following applications were conducted: dicamba was applied preemergence at 1 lb/A followed by glufosinate applied 1.09lb/A at the 2 node stage, followed by dicamba applied at 1 lb/A at the 5 node stage, followed by glufosinate applied 1.09 lb/A at the 8 node stage, followed by dicamba applied at 1 lb/A at the 12 node stage. Neither dicamba nor glufosinate were applied with surfactants, fertilizer additive, or other adjuvant. […] Plots were harvested and yield recorded as lbs/plot of seed cotton and expressed as lb/acre of seed cotton. […]

[4] = system: plants comprising the MON 88701 event; assay type: in vivo, Gossypium hirsutum
Experimental: In year 3, efficacy field testing of event MON 88701 was conducted to study the rate and timing of application of dicamba and/or glufosinate. […] The treatment and application timing are detailed in Table 2. […] The sprayer protocol was as described for year 2 efficacy field testing. Stand rating, visual injury rating (percent epinasty, percent necrosis), plant height and node number, 50-boll sampling, and yield determinations were as described for agronomic and efficacy field testing above.

[5] = system: non-transgenic, wild-type Coker 130; assay: Year 1 efficacy field trial, wild-type control; assay type: in vivo, Gossypium hirsutum; details: sequential regimen: dicamba 1 lb/A preemergence, 5 node, 12 node; glufosinate 1.09 lb/A at 2 node and 8 node; FIG. 7
Experimental: as §1

Compound | survival of herbicide spray [1] | injury rating with increasing application rates of glufosinate ([2]; 0.5, 1, 2 lb/A glufosinate Early, Mid, Late POST, FIG. 5.B) | yield of seedcotton with increasing application rates of glufosinate ([2]; 0.5, 1, 2 lb/A glufosinate applied Early POST, Mid POST and Late POST, FIG. 4.B) | yield of seed cotton, paired sprayed and unsprayed events compared to unsprayed wild-type Coker 130 ([3]; sequential regimen: dicamba 1 lb/A preemergence, 5 node, 12 node, glufosinate 1.09 lb/A at 2 node and 8 node, FIG. 3) | yield of seedcotton ([4]; all other treatment regimens of Table 2 (0.25-1 lb ai/A, four timings), FIG. 6) | survival of the spray regimen [5] | injury rating with increasing application rates of dicamba ([2]; in vivo) | yield of seedcotton with increasing application rates of dicamba ([2]; in vivo) | yield of seed cotton, paired sprayed and unsprayed events compared to unsprayed wild-type Coker 130 ([3]; in vivo) | yield of seedcotton ([4]; in vivo)
2-amino-4-(hydroxymethylphosphinyl)butanoic acid [glufosinate] | did not survive | increased percentage of injury | nearly equivalent | no significant difference | no yield loss | did not survive | – | – | – | –
COc1c(Cl)ccc(Cl)c1C(=O)O [dicamba, 3,6-dichloro-2-methoxybenzoic acid] | did not survive | – | – | – | – | did not survive | increased percentage of injury | nearly equivalent | no significant difference | no yield loss

— patent publication US20250146012A1 (priority 2011, published 2025)
